The target of this assay is T1, renin (Homo sapiens, UniProt P00797).
T1 sequence (P00797 67-406): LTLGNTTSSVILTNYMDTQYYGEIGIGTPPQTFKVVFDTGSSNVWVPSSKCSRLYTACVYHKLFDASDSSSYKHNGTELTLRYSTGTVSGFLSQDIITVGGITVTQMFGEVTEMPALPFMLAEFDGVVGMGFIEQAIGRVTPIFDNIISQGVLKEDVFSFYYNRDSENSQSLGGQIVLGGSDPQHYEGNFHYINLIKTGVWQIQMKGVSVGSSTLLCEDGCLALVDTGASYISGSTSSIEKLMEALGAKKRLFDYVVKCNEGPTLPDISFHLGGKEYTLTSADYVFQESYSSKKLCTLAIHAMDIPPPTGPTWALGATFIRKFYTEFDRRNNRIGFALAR
As to the kind of experiment: in vitro renin inhibitory activity, radioimmunoassay for angiotensin I. The assay is classed as biochemical. As to conditions: renin incubated two hours at 37° with substrate angiotensinogen, angiotensin I by radioimmunoassay, molar concentration causing 50% inhibition. As for the experimental part:
The effectiveness of the aforementioned compound is determined by a test for in vitro renin inhibitory activity. This activity is determined by a standard radioimmunoassay for angiotensin I. In this assay the enzyme, renin, incubated for two hours at 37° in the presence of a substrate, angiotensinogen, generates the product, angiotensin I. Test compounds are added to the incubation mixture. Relative activity is reported as the IC50, which is the molar concentration of test compound causing a 50% inhibition of the renin activity.

Data on 14 substances can be found in US4863905A, “Renin inhibitors II” (Warner-Lambert Company, priority 1987, dated 1989).

By IC50 is commonly meant the concentration at which inhibition is half-maximal. “DNMA--HIS--STA[CHOHCH2 ]CH2 Ph [Example 18]” had an IC50 of 12000 nM. That is a double-digit micromolar value.

The substance “DNMA--HIS--CYCLOHEXYLALA[CHOHCH2 ]GLY--NHCH2 Ph [Example 17]” gave a 50% inhibitory concentration (IC50) of 3400 nM. “DNMA--HIS--CYCLOHEXYLALA[CHOHCH2 ]GLY--NHCH2 CH(CH3)--CH2 CH3 [Example 16]” displayed an IC50 of 250 nM. Consider “DNMA--HIS--CYCLOHEXYLALA[CHOHCH2 ](CH2)2 CH(CH3)2 [Example 5]”, for which half-maximal inhibition (IC50) was put at 1800 nM. The substance “DNMA[CHOHCH2 ]LEU--STA--NHCH2 CH(CH3)CH2 CH3 [Example 20]” yielded an IC50 of 1900 nM. This IC50 and that of the substance before are within 1.5-fold of each other. As for “DNMA--HIS--CYCLOHEXYLALA[CHOHCH2 ]LEU--NHCH2 CH(CH3)--CH2 CH3 [Example 15]”, the half-maximal inhibitory concentration (IC50) amounted to 170 nM. On the same count and under the same terms, the figure for “DNMA--HIS[CH2 NH]STA--NHCH2 CH(CH3)CH2 CH3 [Example 8]” is 16000 nM. On the same count and under the same terms, the figure for “DNMA--HIS--CYCLOHEXYLALA[CHOHCH2 ]GLY--LEU--NHCH2 Ph [Example 11]” is 6400 nM.

For the substance “DNMA--HIS--STA[CH2 NH]CH2 CH(CH3)CH2 CH3 [Example 10]”, the IC50 is 8700 nM. The IC50 values of the last two substances are within 1.5-fold of each other.

Turning to “DNMA--HIS--STA[CH2 SO2 ](CH2)3 CH3 [Example 4]”, the IC50 came to 160 nM. With “DNMA--HIS--STA[CHOHCH2 ]CH2 Ph [Example 19]”, where the note is “listed as DNMAHIS STA[CHOHCH2 ]CH2 Ph (ISOMER)”, the IC50 was 1400 nM. “DNMA--HIS--CYCLOHEXYLALA[CHOHCH2 ]LEU--NHCH2 Ph [Example 14]”: half-maximal inhibition (IC50) was put at 4400 nM. “DNMA--HIS--LEU[CHOHCH2 ]SO2 NHCH2 CH2 Ph [Example 1]” displayed an IC50 of 12000 nM. Regarding “DNMA--HIS--CYCLOHEXYLALA[CHOHCHOH]CH2 OH [Example 7]”, the IC50 was 280 nM.
